Measured values as given in patent US20040235942A1 (priority 2003, published 2004).

How the values were obtained:
[1] = requires twice daily dosing; cited from earlier work
[2] = test system: International Normalized Ratio; test: PREVENT trial: blinded INR evaluation (CoaguChek fingerstick); assay type: in vivo, human; conditions: during follow-up; interquartile range 1.4 to 2.0
Source text: During the run-in, at randomization, and throughout follow-up, all INR assessments at each study site were made using specially designed fingerstick devices with an identical thromboplastin [International Sensitivity Index 2.0] (CoaguChek, Roche Diagnostics, Indianapolis, Ind.). These devices were altered electronically to provide a coded study value which was transmitted to the Data Coordinating Center. All dose adjustments were made in a blinded manner using a simple clinical algorithm (Appendix A).
(§1) Randomization was stratified by clinical site, time since index event (≦6 months, >6 months) and by whether the index event was the patient's first ever VTE. All participants were then followed with office visits once every two months that included blinded INR evaluations and dose adjustments. To further ensure blinding, sham dose adjustments were made in the placebo group.

[3] = test system: factor VII activity and prothrombin fragment F1+2; conditions: in vivo; cited from earlier work
[4] = test system: patients with idiopathic venous thromboembolism; test: PREVENT trial: bleeding, mortality, stroke, cancer, myocardial infarction, drug discontinuation; assay type: in vivo, human
Source text: (§2) All participants were followed for recurrent VTE, major bleeding events, and all-cause mortality.
(§3) All index events were confirmed by objective criteria at the central Clinical Coordinating Center based upon venography, compression ultrasound or MRI reports (for deep vein thrombosis) or by ventilation/perfusion scans, angiograms, or chest computed tomography scans (for pulmonary embolism). Idiopathic events were defined as those not occurring within 90 days of surgery, trauma, or a diagnosis of metastatic cancer. […] Every patient gave written informed consent and the study protocol was approved by each institutional review board.
as §1
(§4) As PREVENT was specifically designed to evaluate clinically relevant recurrent thromboembolic events, no surveillance for asymptomatic thrombosis was undertaken. Rather, at each visit the occurrence of any incident clinical events since the last visit two months earlier was evaluated. All endpoints were reviewed by a committee of physicians unaware of study drug assignment. The endpoint of recurrent deep vein thrombosis was confirmed if there was a positive venography study, doppler compression ultrasound, or MRI. Events documented by clinical diagnosis alone were not confirmed. […] Major hemorrhage was defined as any bleeding episode that led either to hospitalization or transfusion.
(§5) As an index of net clinical benefit, we defined on an a priori basis a composite endpoint of recurrent VTE, major hemorrhage, and all-cause mortality. Incident stroke events were also monitored. These were classified as hemorrhagic or thromboembolic on the basis of clinical records or CT/MRI scanning which were available for all episodes. To avoid double-counting, hemorrhagic strokes were considered as major hemorrhages in analyses using the combined endpoint of recurrent thrombosis, major hemorrhage, and all-cause mortality.
The method of Kaplan and Meier was used to estimate the probability of recurrence by time within treatment groups. Estimation of the number of patients needed to treat (NNT) to prevent one recurrent event was based on rates at one year. […] The hypothesis of a varying effect of treatment over time was tested in a proportional hazards model including an interaction of treatment with time. Tests and estimates of treatment effects on the composite endpoint used the same methods.

[5] = test system: patients with idiopathic venous thromboembolism; test: PREVENT trial: recurrent venous thromboembolism; assay type: in vivo, human
Source text: as §2, §3
The run-in phase was also used to exclude individuals with less than 80 percent compliance.
as §1, §4
Comparisons between the warfarin and placebo groups in the distributions of continuous variables used Wilcoxon rank sum tests; for categorical variables, comparisons used Chi-square tests. The primary analysis was an intention-to-treat comparison of the difference between time to first confirmed recurrent VTE after randomization in the two treatment arms using a two-sided log-rank test. The method of Kaplan and Meier was used to estimate the probability of recurrence by time within treatment groups. Estimation of the number of patients needed to treat (NNT) to prevent one recurrent event was based on rates at one year. We used the proportional hazards model for estimation of the relative hazard of recurrent VTE associated with low-intensity warfarin treatment and obtained confidence intervals from this model. The hypothesis of a varying effect of treatment over time was tested in a proportional hazards model including an interaction of treatment with time. Tests and estimates of treatment effects on the composite endpoint used the same methods.
The primary pre-specified subgroup analysis evaluated the effect of treatment separately in persons with and without either factor V Leiden or the prothrombin mutation. The hypothesis of a different effect of treatment by genetic status was tested in a proportional hazards model including the interaction of treatment with the presence of either factor V Leiden or G20210A prothrombin mutation. Other descriptive comparisons within subgroups used the same methods.

[6] = test system: patients with idiopathic venous thromboembolism; test: PREVENT trial: composite endpoint of recurrent VTE, major hemorrhage and all-cause mortality; assay type: in vivo, human
Source text: as §2, §5
Comparisons between the warfarin and placebo groups in the distributions of continuous variables used Wilcoxon rank sum tests; for categorical variables, comparisons used Chi-square tests. The primary analysis was an intention-to-treat comparison of the difference between time to first confirmed recurrent VTE after randomization in the two treatment arms using a two-sided log-rank test. The method of Kaplan and Meier was used to estimate the probability of recurrence by time within treatment groups. Estimation of the number of patients needed to treat (NNT) to prevent one recurrent event was based on rates at one year. […]

CCOC(=O)CN[C@@H](C(=O)N1CC[C@H]1C(=O)NCc1ccc(/C(N)=N\O)cc1)C1CCCCC1 [ximelagatran]
half-life [1]: relatively short

CC(=O)CC(c1ccccc1)c1c(O)c2ccccc2oc1=O (centres unmarked) [low-intensity warfarin, warfarin]
median INR [2]: 1.7 | reducing biochemical markers of coagulation such as factor VII activity and levels of prothrombin fragment F1+2 [3]: effective | Cancer, Rate ([4]; in vivo): 0.7 events per 100 person years | Deaths, Rate ([4]; in vivo): 0.7 events per 100 person years | Major bleeding, Rate ([4]; in vivo): 0.9 events per 100 person years | Myocardial Infarction, Rate ([4]; in vivo): 0.5 events per 100 person years | confirmed strokes ([4]; in vivo): 1 | patients in whom study drug was discontinued before completion of follow-up ([4]; in vivo): 62 patients | major bleeds that were gastrointestinal ([4]; of 5 major bleeds): 3 | major bleeds that were hematuria in the setting of renal calculus removal ([4]; of 5 major bleeds): 1 | major bleeds that were lower-extremity hematoma ([4]; of 5 major bleeds): 1 | major hemorrhage requiring transfusion of packed red blood cells ([4]; patient was receiving full-dose warfarin at the time of the bleed): 1 | reduction in risk of recurrent VTE ([5]; analysis by use or non-use of long-term anticoagulation at the time of the recurrent event): 81% | participants with recurrent VTE after cessation of study drug ([5]; in vivo): 7 | Recurrent VTE, Rate ([5]; intention-to-treat): 2.6 events per 100 person years | reduction in risk of recurrent VTE ([5]; men): 53% | Recurrent VTE, Rate ([5]; subgroup: Factor V Leiden or Prothrombin Mutation absent): 2.7 events per 100 person years | Recurrent VTE, Rate ([5]; subgroup: Factor V Leiden or Prothrombin Mutation present): 2.2 events per 100 person years | Recurrent VTE, Rate ([5]; subgroup: age 30-44 years): 3.3 events per 100 person years | Recurrent VTE, Rate ([5]; subgroup: age 45-64 years): 1.7 events per 100 person years | Recurrent VTE, Rate ([5]; subgroup: age 65-89 years): 3.9 events per 100 person years | Recurrent VTE, Rate ([5]; subgroup: men): 4.0 events per 100 person years | Recurrent VTE, Rate ([5]; subgroup: women): 1.1 events per 100 person years | risk reduction of recurrent VTE ([5]; those without factor V Leiden or the prothrombin mutation): 58% | Recurrent VTE, Rate ([5]; time after randomization >1 year): 2.5 events per 100 person years | Recurrent VTE, Rate ([5]; time after randomization ≦1 year): 2.7 events per 100 person years | patients needed to be treated to prevent one recurrent event ([5]; treated for one year, based on rates at one year): 14 patients | risk reduction of recurrent VTE ([5]; versus placebo, intention-to-treat): 64% | reduction in risk of recurrent VTE ([5]; women): 80% | Composite Endpoint, Rate ([6]; first VTE, major bleed, or death): 4.1 events per 100 person years | reduction in composite study endpoint of recurrent VTE, major hemorrhage, or death ([6]; versus placebo): 48%
